In patent US20140213576A1, “NOVEL COMPOUND USEFUL FOR THE TREATMENT OF DEGENERATIVE AND INFLAMMATORY DISEASES” (GALAPAGOS NV, priority 2013, published 2014):
Where “and” joins values, the source holds several entries; their conditions need not be identical. Identical values can stand only once.

Biological target: T1, Recombinant human TYK2 catalytic domain (Homo sapiens, UniProt P29597)
T1 construct: Recombinant human TYK2 catalytic domain (amino acids 871-1187; catalog number 08-147); purchased Carna biosciences 08-147
T1 sequence (P29597 871-1187): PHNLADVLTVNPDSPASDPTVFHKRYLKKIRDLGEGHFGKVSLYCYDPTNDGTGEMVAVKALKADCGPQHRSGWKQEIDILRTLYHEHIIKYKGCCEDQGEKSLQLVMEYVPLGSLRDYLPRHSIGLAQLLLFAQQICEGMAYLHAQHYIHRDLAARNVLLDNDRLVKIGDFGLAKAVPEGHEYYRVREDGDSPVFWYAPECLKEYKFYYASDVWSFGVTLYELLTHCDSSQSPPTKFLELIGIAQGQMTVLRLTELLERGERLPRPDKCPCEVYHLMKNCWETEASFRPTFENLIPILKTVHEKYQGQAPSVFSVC
Assay: TYK2 inhibition assay (polyGT substrate)
Type: biochemical
Conditions: 0.1 μM ATP, individual determinations, read-out: IC50 against TYK2
Procedure: Recombinant human TYK2 catalytic domain (amino acids 871-1187; catalog number 08-147) was purchased from Carna biosciences. 5 ng of TYK2 was incubated with 12.5 μg polyGT substrate (Sigma catalog number P0275) in kinase reaction buffer (25 mM Hepes pH 7.2, 50 mM NaCl, 0.5 mM EDTA, 1 mM DTT, 5 mM MnCl2, 10 mM MgCl2, 0.1% Brij-35, 0.1 μM non-radioactive ATP, 0.125 μCi ^33P-gamma-ATP (GE Healthcare, catalog number AH9968) final concentrations) with or without 5 μL containing test compound or vehicle (DMSO, 1% final concentration), in a total volume of 25 μL, in a polypropylene 96-well plate (Greiner, V-bottom). After 90 min at 30° C., reactions were stopped by adding 25 μL/well of 150 mM phosphoric acid. […] 40 μL/well of Microscint-20 was added, the top of the plates was sealed and readout was performed using the Topcount (Perkin Elmer). Kinase activity was calculated by subtracting counts per min (cpm) obtained in the presence of a positive control inhibitor (10 μM staurosporine) from cpm obtained in the presence of vehicle. The ability of a test compound to inhibit this activity was determined as:
Percentage inhibition=((cpm determined for sample with test compound present−cpm determined for sample with positive control inhibitor) divided by (cpm determined in the presence of vehicle−cpm determined for sample with positive control inhibitor))*100. […]

- IC50: 844 nM and 461 nM and 470 nM and 488 nM and 759 nM and 754 nM and 1000 nM and 501 nM and 688 nM
Compound: CCc1cc(C2CN(S(C)(=O)=O)C2)ncc1N(C)c1cc2c(cn1)ncn2C [Compound 1, [4-Ethyl-6-(1-methanesulfonyl-azetidin-3-yl)-pyridin-3-yl]-methyl-(1-methyl-1H-imidazo[4,5-d]pyridin-6-yl)-amine]
